Data on 6 cell lines can be found in the supplement of paper PMC9663587.

Compound in the first experiment: CN(C)C(=O)c1cc2cnc(Nc3ccc(N4CCNCC4)cn3)nc2n1C1CCCC1 [LEE011/Ribociclib]
In words: GR value, 72 h; higher = faster growth (1 = untreated, <0 = killing).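 Also: breast cancer and non-malignant breast epithelial lines, nine half-log doses, viable cells counted by Hoechst and LIVE/DEAD dye imaging versus time-zero plates and DMSO controls.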 The settings on record: 1 µM.
CAL51: the GR value came to 0.631 GR.

In the case of CAL120, the GR value amounted to 0.646 GR.

CAMA1: the GR value came to 0.21 GR.

The same experiment, now with this note: 3.162 µM.
With BT20, the GR value worked out at 0.384 GR.

As for BT474, the GR value was 0.6 GR.

Turning to BT549, the GR value worked out at 0.966 GR.

Regarding CAL51, the GR value is 0.55 GR.

Consider CAL120, for which the GR value worked out at 0.631 GR.

CAMA1: the GR value was 0.141 GR.

The experiment is the same for the next values; noted with them: 10 µM.
Regarding BT20, the GR value was 0.0703 GR.

Take BT474: the GR value is 0.711 GR.

As to BT549, the GR value amounted to 0.992 GR.

Consider CAL51, for which the GR value came to 0.396 GR.

Turning to CAL120, the GR value turned out to be 0.664 GR.

Consider CAMA1, for which the GR value amounted to 0.159 GR.

Compound in the next experiment: CN(C)C/C=C/C(=O)Nc1ccc(C(=O)N2CCC[C@@H](Nc3ncc(Cl)c(-c4c[nH]c5ccccc45)n3)C2)cc1 [THZ531]
Described as above. The settings on record: 0.0001 µM.
BT20: the GR value came to 1 GR.

Take BT474: the GR value was found to be 1.09 GR.

In the case of BT549, the GR value worked out at 0.997 GR.

For the cell line CAL51, the GR value amounted to 0.973 GR.

As for CAL120, the GR value came out at 1.03 GR.

For CAMA1, the GR value turned out to be 1.2 GR.

The same experiment, now with this note: 0.0003162 µM.
Regarding BT20, the GR value is 0.93 GR.

As to BT474, the GR value was 0.953 GR.

With BT549, the GR value stood at 0.974 GR.

On to CAL51, for which the GR value was 0.962 GR.

With CAL120, the GR value was 1.03 GR.

As for CAMA1, the GR value was determined as 0.94 GR.

The same experiment, now with this note: 0.001 µM.
Turning to BT20, the GR value was 0.967 GR.

For BT474, the GR value was determined as 0.521 GR.

In the case of BT549, the GR value worked out at 1.01 GR.

For CAL51, the GR value was 0.912 GR.

Consider CAL120, for which the GR value stood at 0.934 GR.

For CAMA1, the GR value is 0.893 GR.

Still in this experiment, the particulars now being: 0.003162 µM.
In the case of BT20, the GR value was determined as 0.988 GR.

Take BT474: the GR value was 0.917 GR.

For the cell line BT549, the GR value was determined as 1.01 GR.

For CAL51, the GR value was 0.96 GR.

Regarding CAL120, the GR value came out at 1.04 GR.

As for CAMA1, the GR value stood at 1.16 GR.

Still in this experiment, the particulars now being: 0.01 µM.
On to BT20, for which the GR value was determined as 1.09 GR.

Take BT474: the GR value came out at 1.1 GR.

For BT549, the GR value turned out to be 1.04 GR.

Turning to CAL51, the GR value worked out at 1.01 GR.

For the cell line CAL120, the GR value was determined as 1.06 GR.

CAMA1: the GR value came to 1.26 GR.

Staying with this experiment, now noted: 0.03162 µM.
On to BT20, for which the GR value turned out to be 1 GR.

BT474: the GR value was 0.881 GR.

With BT549, the GR value turned out to be 0.956 GR.

Regarding CAL51, the GR value came out at 0.937 GR.

In the case of CAL120, the GR value stood at 0.891 GR.

In the case of CAMA1, the GR value was 0.867 GR.

Still in this experiment, the particulars now being: 0.1 µM.
As to BT20, the GR value stood at 0.927 GR.

As to BT474, the GR value was -0.388 GR.

As for BT549, the GR value stood at 0.849 GR.

In the case of CAL51, the GR value stood at 0.904 GR.

As for CAL120, the GR value stood at 0.589 GR.

Take CAMA1: the GR value came to 0.777 GR.

Still in this experiment, the particulars now being: 0.3162 µM.
With BT20, the GR value turned out to be 0.907 GR.

BT474: the GR value is -0.861 GR.

Regarding BT549, the GR value was found to be 0.51 GR.

Regarding CAL51, the GR value was 0.786 GR.

As for CAL120, the GR value was found to be 0.275 GR.

CAMA1: the GR value is -0.0843 GR.

Still in this experiment, the particulars now being: 1 µM.
BT20: the GR value came out at 0.647 GR.

For BT474, the GR value was -0.675 GR.

BT549: the GR value is -0.378 GR.

CAL51: the GR value worked out at 0.543 GR.

For CAL120, the GR value was -0.0063 GR.

In the case of CAMA1, the GR value is -0.403 GR.

Compound in a further experiment: CN1CC[C@H](c2c(O)cc(O)c3c(=O)cc(-c4ccccc4Cl)oc23)[C@H](O)C1 [Flavopiridol]
The description is as above. The settings on record: 0.0001 µM.
On to BT20, for which the GR value turned out to be 0.987 GR.

On to BT474, for which the GR value came out at 1.17 GR.

BT549: the GR value amounted to 1.03 GR.

Take CAL51: the GR value came out at 0.98 GR.

In the case of CAL120, the GR value amounted to 0.984 GR.

For CAMA1, the GR value amounted to 1.25 GR.

The experiment is the same for the next values; noted with them: 0.0003162 µM.
In the case of BT20, the GR value was determined as 0.946 GR.

For BT474, the GR value stood at 0.998 GR.

As to BT549, the GR value turned out to be 0.982 GR.

As for CAL51, the GR value was 0.944 GR.

Turning to CAL120, the GR value amounted to 0.934 GR.

In the case of CAMA1, the GR value worked out at 1.12 GR.

The experiment is the same for the next values; noted with them: 0.001 µM.
In the case of BT20, the GR value worked out at 0.999 GR.

As for BT474, the GR value came to 0.895 GR.

BT549: the GR value was found to be 1.01 GR.

Regarding CAL51, the GR value was 0.962 GR.

Consider CAL120, for which the GR value came out at 0.919 GR.

In the case of CAMA1, the GR value came to 0.73 GR.

The experiment is the same for the next values; noted with them: 0.003162 µM.
On to BT20, for which the GR value came to 0.931 GR.

With BT474, the GR value came to 0.878 GR.

Turning to BT549, the GR value came to 0.958 GR.

Regarding CAL51, the GR value stood at 0.909 GR.

In the case of CAL120, the GR value is 0.917 GR.

Regarding CAMA1, the GR value stood at 1.05 GR.

Still in this experiment, the particulars now being: 0.01 µM.
Turning to BT20, the GR value came to 0.993 GR.

BT474: the GR value turned out to be 0.801 GR.

Turning to BT549, the GR value worked out at 1.02 GR.

With CAL51, the GR value worked out at 0.842 GR.

On to CAL120, for which the GR value was 0.901 GR.

Take CAMA1: the GR value was 0.907 GR.

The same experiment, now with this note: 0.03162 µM.
Consider BT20, for which the GR value stood at 0.835 GR.

For the cell line BT474, the GR value worked out at 0.959 GR.

BT549: the GR value is 0.894 GR.

Regarding CAL51, the GR value amounted to 0.887 GR.

Consider CAL120, for which the GR value came out at 0.88 GR.

Take CAMA1: the GR value is 0.862 GR.

Staying with this experiment, now noted: 0.1 µM.
Turning to BT20, the GR value amounted to 0.593 GR.

In the case of BT474, the GR value is 0.935 GR.

On to BT549, for which the GR value came to 0.695 GR.

Consider CAL51, for which the GR value came out at 0.708 GR.

Regarding CAL120, the GR value was 0.719 GR.

For CAMA1, the GR value was 0.807 GR.

The experiment is the same for the next values; noted with them: 0.3162 µM.
For BT20, the GR value is -0.0024 GR.

Take BT474: the GR value came to 0.154 GR.

Regarding BT549, the GR value is 0.11 GR.

In the case of CAL51, the GR value stood at 0.353 GR.

As to CAL120, the GR value amounted to 0.342 GR.

Take CAMA1: the GR value came to 0.194 GR.

The same experiment, now with this note: 1 µM.
With BT20, the GR value was -0.639 GR.

Turning to BT474, the GR value is -0.753 GR.

As to BT549, the GR value is -0.455 GR.

As for CAL51, the GR value was -0.099 GR.

With CAL120, the GR value is -0.0548 GR.

For CAMA1, the GR value is -0.111 GR.
